In US20220170930A1, “METHOD FOR SCREENING COMPOUND FOR TREATING OR PREVENTING POLYQ-RELATED NEURODEGENERATIVE DISEASES” (FUDAN UNIVERSITY, priority 2019, published 2022):

Columns and labels:
[1] = biological target: T1, full-length mHTT (flHTT-Q73) (Homo sapiens, UniProt P42858, INS38QQQQQQQQQQQQQQQQQQQQQQQQQQQQQQQQQQQQQQQQQQQQQQQQQQQQ); assay: OI-RD affinity reaction parameters with flHTT-Q73; assay type: binding; settings: OI-RD, flHTT-Q73
T1 construct: LC3B, full-length mHTT (flHTT-Q73) and full-length HTT-Q23 (flHTT-Q23); protein A (N, cleaved yes); made in house; host or cells: human embryonic kidney E293 cells
T1 sequence (P42858 with tags, fused parts or gaps with the stated changes): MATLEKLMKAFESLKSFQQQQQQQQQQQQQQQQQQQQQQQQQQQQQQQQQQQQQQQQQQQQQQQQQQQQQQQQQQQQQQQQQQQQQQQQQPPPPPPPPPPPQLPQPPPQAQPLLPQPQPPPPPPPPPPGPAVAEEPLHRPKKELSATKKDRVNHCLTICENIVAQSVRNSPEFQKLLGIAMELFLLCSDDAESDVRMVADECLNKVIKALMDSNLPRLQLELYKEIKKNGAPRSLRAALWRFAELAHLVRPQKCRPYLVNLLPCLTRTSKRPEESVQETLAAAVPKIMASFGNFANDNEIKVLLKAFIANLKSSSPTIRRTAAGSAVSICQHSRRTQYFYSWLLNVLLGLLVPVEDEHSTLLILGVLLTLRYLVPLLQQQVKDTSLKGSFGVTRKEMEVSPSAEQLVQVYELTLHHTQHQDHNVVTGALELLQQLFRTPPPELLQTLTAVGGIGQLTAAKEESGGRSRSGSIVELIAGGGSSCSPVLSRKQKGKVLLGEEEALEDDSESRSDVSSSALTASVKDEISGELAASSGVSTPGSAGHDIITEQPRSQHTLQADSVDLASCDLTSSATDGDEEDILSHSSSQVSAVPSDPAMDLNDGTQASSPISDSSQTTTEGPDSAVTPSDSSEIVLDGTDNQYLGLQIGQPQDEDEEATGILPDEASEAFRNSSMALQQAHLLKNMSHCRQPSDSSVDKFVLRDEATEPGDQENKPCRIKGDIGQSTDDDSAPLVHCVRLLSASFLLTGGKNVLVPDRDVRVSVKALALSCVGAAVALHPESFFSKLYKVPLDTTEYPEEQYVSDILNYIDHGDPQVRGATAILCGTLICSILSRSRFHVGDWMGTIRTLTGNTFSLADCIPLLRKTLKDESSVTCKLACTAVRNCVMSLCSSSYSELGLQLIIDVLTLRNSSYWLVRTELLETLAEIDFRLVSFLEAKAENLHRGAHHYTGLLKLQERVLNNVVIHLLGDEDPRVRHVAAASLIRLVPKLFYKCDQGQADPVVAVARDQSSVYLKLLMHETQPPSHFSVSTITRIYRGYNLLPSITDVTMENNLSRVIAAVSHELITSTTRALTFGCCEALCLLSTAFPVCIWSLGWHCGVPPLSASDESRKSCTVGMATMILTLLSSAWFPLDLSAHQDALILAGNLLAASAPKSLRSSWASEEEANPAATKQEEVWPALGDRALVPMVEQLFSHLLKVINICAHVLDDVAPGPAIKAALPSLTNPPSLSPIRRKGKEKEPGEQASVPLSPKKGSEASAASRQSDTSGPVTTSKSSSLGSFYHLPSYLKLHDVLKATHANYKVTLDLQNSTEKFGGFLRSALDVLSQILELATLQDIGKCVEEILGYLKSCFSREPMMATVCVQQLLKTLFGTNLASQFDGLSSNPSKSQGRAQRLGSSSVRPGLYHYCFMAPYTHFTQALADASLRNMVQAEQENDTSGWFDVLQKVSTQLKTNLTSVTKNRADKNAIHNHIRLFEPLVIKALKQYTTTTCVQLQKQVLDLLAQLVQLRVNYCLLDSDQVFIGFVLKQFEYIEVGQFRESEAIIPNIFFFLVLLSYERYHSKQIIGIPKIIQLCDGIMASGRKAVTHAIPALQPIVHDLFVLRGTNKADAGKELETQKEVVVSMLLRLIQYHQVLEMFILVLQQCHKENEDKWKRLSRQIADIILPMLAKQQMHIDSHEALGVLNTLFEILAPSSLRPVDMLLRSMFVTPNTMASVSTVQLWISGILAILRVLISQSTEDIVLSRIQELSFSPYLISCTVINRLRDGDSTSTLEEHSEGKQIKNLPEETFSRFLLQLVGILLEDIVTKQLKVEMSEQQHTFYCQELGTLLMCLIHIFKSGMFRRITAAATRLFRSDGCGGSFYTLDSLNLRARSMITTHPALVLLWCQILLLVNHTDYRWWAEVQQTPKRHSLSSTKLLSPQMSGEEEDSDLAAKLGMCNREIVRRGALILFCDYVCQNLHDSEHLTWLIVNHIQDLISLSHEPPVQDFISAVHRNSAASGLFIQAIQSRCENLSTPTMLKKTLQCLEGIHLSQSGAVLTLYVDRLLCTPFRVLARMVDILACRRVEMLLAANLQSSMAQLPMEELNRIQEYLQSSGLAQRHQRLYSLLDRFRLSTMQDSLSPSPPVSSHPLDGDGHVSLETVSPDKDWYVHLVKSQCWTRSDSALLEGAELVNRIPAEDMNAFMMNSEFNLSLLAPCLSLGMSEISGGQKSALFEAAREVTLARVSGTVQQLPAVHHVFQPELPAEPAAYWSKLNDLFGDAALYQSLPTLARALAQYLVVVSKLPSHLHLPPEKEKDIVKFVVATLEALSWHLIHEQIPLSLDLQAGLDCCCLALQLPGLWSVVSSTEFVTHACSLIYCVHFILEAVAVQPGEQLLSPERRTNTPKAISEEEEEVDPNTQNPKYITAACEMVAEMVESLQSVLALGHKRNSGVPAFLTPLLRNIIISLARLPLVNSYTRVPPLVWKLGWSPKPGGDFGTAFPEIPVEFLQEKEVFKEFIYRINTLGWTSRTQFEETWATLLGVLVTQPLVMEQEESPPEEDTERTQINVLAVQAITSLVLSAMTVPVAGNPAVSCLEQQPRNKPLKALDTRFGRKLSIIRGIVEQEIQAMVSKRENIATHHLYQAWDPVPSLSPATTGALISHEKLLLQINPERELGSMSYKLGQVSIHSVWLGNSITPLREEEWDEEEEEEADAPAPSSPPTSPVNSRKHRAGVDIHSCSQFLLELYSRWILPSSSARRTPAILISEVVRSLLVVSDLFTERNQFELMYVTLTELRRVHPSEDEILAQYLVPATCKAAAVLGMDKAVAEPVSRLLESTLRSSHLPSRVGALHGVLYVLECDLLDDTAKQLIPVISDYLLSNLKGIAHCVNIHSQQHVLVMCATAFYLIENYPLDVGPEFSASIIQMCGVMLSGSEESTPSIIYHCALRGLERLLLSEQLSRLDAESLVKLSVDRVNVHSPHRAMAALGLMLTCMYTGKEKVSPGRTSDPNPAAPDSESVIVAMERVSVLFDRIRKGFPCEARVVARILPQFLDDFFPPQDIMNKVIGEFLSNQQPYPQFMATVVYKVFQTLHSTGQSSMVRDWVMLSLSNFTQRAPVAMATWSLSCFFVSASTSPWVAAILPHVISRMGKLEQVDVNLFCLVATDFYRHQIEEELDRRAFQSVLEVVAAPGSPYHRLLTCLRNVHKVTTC
Description: (§1) Each compound was printed in triplicates on the microarray. 01-RD was used to measure the affinity reaction parameters of the compound with LC3B, full-length mHTT (flHTT-Q73) and full-length HTT-Q23 (flHTT-Q23).

mHTT [2] = assay: Western-blot mHTT level in primary cultured cortical neurons; assay type: cell-based, mouse; settings: 2 days
Description: Primary cultured cortical neurons: The brains of Hdh^Q140/Q7 and Hdh^Q7/Q7 newborn mice (P0) were dissected, digested, dissociated, and cultured.
(1) The primary cultured Hdh^Q140/Q7 and Hdh^Q7/Q7 mouse cortical neuron cells were treated with the compound for 2 days.

in vivo = settings: mouse, ip, 0.5 mg/kg
Description: Experimental method: The compound or control DMSO was diluted with 0.9% NaCl intravenous infusion solution to 0.05 μg/μL. One ip-injection (0.5 mg/kg) was conducted per day. After 14 days of injection, tissue extraction or behavioral experiment were conducted.

[3] = biological target: T2, mutant ATXN1 protein (His-ATXN1-Q92) (Homo sapiens, UniProt P54253, INS208QQQQQQQQQQQQQQQQQQQQQQQQQQQQQQQQQQQQQQQQQQQQQQQQQQQQQQQQQQQQQQQQQQQQQQQQQQQQQQQQ); assay: HTRF mutant ATXN1 level in His-ATXN1-Q92-expressing cells; assay type: cell-based; settings: 100 nM, 2 days, anti-His-Tb/MW1-D2
T2 construct: expressed in transfected cells; host or cells: HEK293T cells (ATCC, CRL-3216)

HTTexon1-Q72-MBP = biological target: T3, HTTexon1-Q72-MBP (Homo sapiens, UniProt P42858, INS38QQQQQQQQQQQQQQQQQQQQQQQQQQQQQQQQQQQQQQQQQQQQQQQQQQQ); assay: OI-RD affinity screening and affinity reaction parameters with HTTexon1-Q72; assay type: binding
T3 construct: made in house; host or cells: mammalian expression vector pTT5SH8Q2
T3 sequence (P42858 with tags, fused parts or gaps, stated change not applied): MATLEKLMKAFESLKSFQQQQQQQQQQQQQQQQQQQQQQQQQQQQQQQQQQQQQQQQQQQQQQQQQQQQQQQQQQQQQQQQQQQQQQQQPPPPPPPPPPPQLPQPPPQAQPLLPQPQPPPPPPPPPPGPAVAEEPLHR
Description: Each compound was printed in duplicate on the microarray. The compound not fixed on the surface of the chip was washed away. The chip was sealed and cleaned. 01-RD microscope was applied to scan the images. […] The chips are cleaned and scanned.
(§2) The difference images of the above steps (1), (2), (3) (the image after incubation minus the image before incubation) was analyzed respectively.
(§3) Each compound was printed in triplicates on the microarray. 01-RD was used to measure the affinity reaction parameters of compounds with HTTexon1-Q72 and HTTexon1-Q25.

Q46-GFP = assay: OI-RD affinity reaction parameters with Q46-GFP; assay type: binding
Description: (§4) (1) PolyQ-GFP cDNA sequence (expressing Met-polyQ-GFP, wherein polyQ was Q72 or Q25) was synthesized de novo and subcloned into pcDNA vector. […] And the same method was used to obtain cells expressing Q53-GFP, cells expressing Q46-GFP, and cells expressing Q38-GFP.

Q38-GFP = assay: OI-RD affinity reaction parameters with Q38-GFP; assay type: binding
Description: as §4

Q72-GFP = assay: OI-RD affinity reaction parameters with Q72-GFP; assay type: binding
Description: as §4

mHTT [4] = assay: Intracerebroventricular injection, mHTT and wtHTT in cortices of HD mice; assay type: in vivo, mouse
Description: Experimental animals: Hdh^Q140/Q7 mice (3 months old), 4 in each group.
Each test includes three repetitions for each sample, and the mean values was calculated (FIG. 16).

HTTexon1-Q25-MBP = biological target: T4, HTTexon1-Q25-MBP (Homo sapiens, UniProt P42858, DUP35-38); assay: OI-RD affinity with HTTexon1-Q25; assay type: binding
T4 construct: made in house; host or cells: mammalian expression vector pTT5SH8Q2
T4 sequence (P42858 with tags, fused parts or gaps DUP35-38): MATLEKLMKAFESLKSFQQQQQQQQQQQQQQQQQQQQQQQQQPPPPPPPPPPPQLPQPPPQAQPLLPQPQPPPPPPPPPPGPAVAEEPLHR
Description: OI-RD images before and after incubation with the target protein was obtained following the method in (1).
as §2, §3

LC3B = biological target: T5, LC3B (Homo sapiens, UniProt Q9GZQ8); assay: OI-RD affinity with LC3B; assay type: binding
T5 construct: His8 (N, cleaved yes); GST (from pGEX-6P1) (N, cleaved yes); made in house; host or cells: E. coli BL21(DE3)pLsyS
Description: 01-RD images before and after incubation with the target protein was obtained following the method in (1).
as §2, §1

MBP-ATXN3-Q68 = MBP-ATXN3-Q68 (Homo sapiens, UniProt P54252, INS305QQQQQQQQQQQQQQQQQQQQQQQQQQQQQQQQQQQQQQQQQQQQQQQQQQQQQQQQQQ); assay: OI-RD affinity screening with MBP-ATXN3-Q68; assay type: binding; set-up: His8 with TEV protease cleavage site; made in house; host or cells: Escherichia coli Rosetta(DE3)pLsyS; settings: OI-RD difference images
MBP-ATXN3-Q68, sequence (P54252 with tags, fused parts or gaps isoform P54252-4 with the stated changes): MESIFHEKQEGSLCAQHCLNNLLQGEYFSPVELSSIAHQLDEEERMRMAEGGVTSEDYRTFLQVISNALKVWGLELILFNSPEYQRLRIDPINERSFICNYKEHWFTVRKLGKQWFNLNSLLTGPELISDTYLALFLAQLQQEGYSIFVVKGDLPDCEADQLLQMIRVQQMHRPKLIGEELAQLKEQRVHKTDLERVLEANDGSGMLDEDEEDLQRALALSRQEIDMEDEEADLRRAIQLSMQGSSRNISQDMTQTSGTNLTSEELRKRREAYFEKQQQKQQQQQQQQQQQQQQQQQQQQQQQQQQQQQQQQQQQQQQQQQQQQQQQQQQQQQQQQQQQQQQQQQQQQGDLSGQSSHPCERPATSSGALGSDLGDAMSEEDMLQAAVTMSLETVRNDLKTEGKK
Description: Screening was conducted using a method similar to 1.1, except for that the target protein HTTexon1-Q72-MBP in step (1) of 1.1 was replaced with MBP-ATXN3-Q68 and the target protein HTTexon1-Q25-MBP in step (2) of 1.1 was replaced with MBP-ATXN3-Q28, to obtain compounds that can selectively bind to ATXN3 with abnormally expanded polyQ (MBP-ATXN3-Q68).

GFP = assay: OI-RD affinity screening with GFP; assay type: binding; settings: OI-RD difference images
Description: To identify compound(s) that can selectively bind to proteins containing expanded polyglutamine, screening was conducted using a method similar to 1.1, except for that the target protein HTTexon1-Q72-MBP in step (1) of 1.1 was replaced with the polyQ-GFP protein prepared in 10.1, and the target protein HTTexon1-Q25-MBP in step (2) of 1.1 was replaced with GFP.

[5] = biological target: T6, mutant ATXN3 protein (ATXN3-Q74) (Homo sapiens, UniProt P54252, G306R/INS305QQQQQQQQQQQQQQQQQQQQQQQQQQQQQQQQQQQQQQQQQQQQQQQQQQQQQQQQQQQQQQQQ/V212M); assay: Western-blot mutant ATXN3 level in SCA3 patient fibroblasts; assay type: cell-based; settings: 100 nM (compound 4: 50 nM), 2 days
T6 construct: endogenous in cells; host or cells: SCA3 patient fibroblasts (Q74)
T6 sequence (P54252 with tags, fused parts or gaps isoform P54252-1 with the stated changes): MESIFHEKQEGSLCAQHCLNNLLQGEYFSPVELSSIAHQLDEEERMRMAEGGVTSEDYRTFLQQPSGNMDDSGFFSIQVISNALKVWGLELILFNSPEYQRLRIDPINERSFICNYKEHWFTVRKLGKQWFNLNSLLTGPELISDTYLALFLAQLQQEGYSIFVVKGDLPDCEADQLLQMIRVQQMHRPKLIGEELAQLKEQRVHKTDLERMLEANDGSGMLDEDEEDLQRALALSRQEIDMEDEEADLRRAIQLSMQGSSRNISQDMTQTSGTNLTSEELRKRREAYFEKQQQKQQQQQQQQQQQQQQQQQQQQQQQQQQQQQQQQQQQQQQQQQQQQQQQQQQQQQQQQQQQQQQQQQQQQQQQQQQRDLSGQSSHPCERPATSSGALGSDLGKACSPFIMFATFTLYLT
Description: Then the levels of mutant ATXN3 protein (ATXN3-Q74, SEQ ID NO: 2) and wild-type ATXN3 protein (ATXN3-Q27, SEQ ID NO: 7) were determined by Western-blots (FIG. 26). […] Therefore, the compound of the present invention can be used to treat SCA3.

O=C1Nc2ccc(I)cc2/C1=C/c1cc(Br)c(O)c(Br)c1 [compound 1, GW5074]
Koff [1]: 0.000133 s⁻¹
Kon [1]: 5.43e-05 min/nM
Kd ([1]; read-out: Kd): 14.7 nM
concentration range in which the effect of selectively reducing mHTT levels was observed (mHTT [2]): 30 to 300 nM
preferred concentration for selectively reducing mHTT levels (mHTT [2]): 100 nM
concentration at 2 h (in vivo): 81 ng/g
level of mutant ATXN1 protein (His-ATXN1-Q92) [3]: Decreased levels of mutant ATXN1 were observed
binding to HTTexon1-Q72 (HTTexon1-Q72-MBP; OI-RD difference images): can bind
Koff (HTTexon1-Q72-MBP; OI-RD, HTTexon1-Q72): 0.000238 s⁻¹
Kon (HTTexon1-Q72-MBP; OI-RD, HTTexon1-Q72): 9.07e-05 min/nM
Kd (HTTexon1-Q72-MBP; OI-RD, HTTexon1-Q72, read-out: Kd): 158 nM
Kd (Q46-GFP): 60.2 nM
Koff (Q46-GFP): 0.000305 s⁻¹
Kon (Q46-GFP): 0.000304 min/nM
Kd (Q38-GFP): 1920 nM
Koff (Q38-GFP): 0.000338 s⁻¹
Kon (Q38-GFP): 1.06e-05 min/nM
Kd (Q72-GFP): 180 nM
Koff (Q72-GFP): 0.000252 s⁻¹
Kon (Q72-GFP): 8.37e-05 min/nM
mHTT selectivity relative to wtHTT (mHTT [4]; Hdh^Q140/Q7 mice, icv, 10 days): showed mHTT selectivity relative to wtHTT
mHTT level in cortices (mHTT [4]; mouse, in vivo): significantly reduced mHTT level
binding to HTTexon1-Q25 (HTTexon1-Q25-MBP): do not bind
binding to LC3B (LC3B; OI-RD difference images): can bind
Koff (LC3B; OI-RD, LC3B): 0.00029 s⁻¹
Kon (LC3B; OI-RD, LC3B): 3.72e-05 min/nM
Kd (LC3B; OI-RD, LC3B, read-out: Kd): 468 nM
binding to MBP-ATXN3-Q68 (MBP-ATXN3-Q68): binded
binding to GFP (GFP): did not bind
mutant ATXN3 protein level [5]: A decrease in mutant ATXN3 protein level was observed
